Experimental data as given in EP4592286A1, “MACROCYCLIC NITROGEN-CONTAINING CROWN ETHER COMPOUND AND USE THEREOF AS PROTEIN KINASE INHIBITOR” (Artivila Biopharma, priority 2022, dated 2024).

Experiments:
[1] = molecular target: T1, JAK1 (Homo sapiens, UniProt P23458); experiment: experiment of inhibiting kinase activity (Caliper mobility shift assay), JAK1; assay type: biochemical; conditions: for inhibition at 0.1 µM: at 100 nM; for IC50: kinase activity assay, Table 3
How it was run: (§1)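 Read-out was Caliper mobility shift of substrate conversion, normalized to no-inhibitor and buffer-only wells, with IC50 from a variable-slope log(inhibitor) curve. Enzyme was exposed to compound (10-point 3-fold series from 10 µM, or single 10/100 nM) 10 min at room temperature before ATP/substrate addition.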

[2] = molecular target: JAK2 (Homo sapiens, UniProt O60674); experiment: experiment of inhibiting kinase activity (Caliper mobility shift assay), JAK2; assay type: biochemical; conditions: for inhibition at 0.01 µM: at 10 nM; for inhibition at 0.01 µM / inhibition at 0.1 µM: read-out: inhibition rate JAK2; for inhibition at 0.1 µM: at 100 nM; for IC50: kinase activity assay, Table 3
Sequence of JAK2 (O60674 whole entry): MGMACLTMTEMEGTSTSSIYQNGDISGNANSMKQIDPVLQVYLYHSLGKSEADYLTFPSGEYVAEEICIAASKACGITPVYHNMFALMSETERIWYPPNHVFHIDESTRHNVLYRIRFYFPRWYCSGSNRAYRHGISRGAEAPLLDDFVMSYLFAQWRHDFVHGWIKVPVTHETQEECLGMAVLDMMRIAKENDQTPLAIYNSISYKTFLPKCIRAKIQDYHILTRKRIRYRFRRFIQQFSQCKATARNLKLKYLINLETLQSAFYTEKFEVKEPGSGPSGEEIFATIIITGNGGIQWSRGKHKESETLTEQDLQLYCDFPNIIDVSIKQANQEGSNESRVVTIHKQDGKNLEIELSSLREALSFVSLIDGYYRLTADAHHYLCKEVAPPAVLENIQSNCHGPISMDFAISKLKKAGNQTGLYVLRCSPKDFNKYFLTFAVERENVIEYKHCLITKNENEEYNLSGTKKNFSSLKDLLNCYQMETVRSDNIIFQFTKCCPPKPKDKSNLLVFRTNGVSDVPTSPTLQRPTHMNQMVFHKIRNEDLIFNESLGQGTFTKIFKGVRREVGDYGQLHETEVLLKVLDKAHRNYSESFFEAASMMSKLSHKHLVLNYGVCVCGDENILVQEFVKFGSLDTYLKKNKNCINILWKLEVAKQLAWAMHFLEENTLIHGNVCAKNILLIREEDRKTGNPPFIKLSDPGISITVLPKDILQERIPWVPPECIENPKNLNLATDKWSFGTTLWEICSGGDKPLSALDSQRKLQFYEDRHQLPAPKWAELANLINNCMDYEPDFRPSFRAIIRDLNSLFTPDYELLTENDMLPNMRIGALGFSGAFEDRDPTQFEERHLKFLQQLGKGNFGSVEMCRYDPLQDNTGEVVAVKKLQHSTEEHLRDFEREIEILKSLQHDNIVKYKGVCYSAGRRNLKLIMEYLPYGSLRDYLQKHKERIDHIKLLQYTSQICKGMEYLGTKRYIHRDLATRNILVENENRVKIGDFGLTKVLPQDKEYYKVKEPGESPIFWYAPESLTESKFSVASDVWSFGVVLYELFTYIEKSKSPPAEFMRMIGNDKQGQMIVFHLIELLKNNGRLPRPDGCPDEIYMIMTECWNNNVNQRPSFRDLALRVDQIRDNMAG
How it was run: as §1

[3] = molecular target: LRRK2 (Homo sapiens, UniProt Q5S007); experiment: experiment of inhibiting kinase activity, LRRK2; assay type: biochemical; conditions: for inhibition at 0.1 µM: at 100 nM; for inhibition at 0.1 µM / inhibition at 0.01 µM: read-out: inhibition rate LRRK2; for IC50: kinase activity assay, Table 3; for inhibition at 0.01 µM: at 10 nM
Sequence of LRRK2 (Q5S007 whole entry): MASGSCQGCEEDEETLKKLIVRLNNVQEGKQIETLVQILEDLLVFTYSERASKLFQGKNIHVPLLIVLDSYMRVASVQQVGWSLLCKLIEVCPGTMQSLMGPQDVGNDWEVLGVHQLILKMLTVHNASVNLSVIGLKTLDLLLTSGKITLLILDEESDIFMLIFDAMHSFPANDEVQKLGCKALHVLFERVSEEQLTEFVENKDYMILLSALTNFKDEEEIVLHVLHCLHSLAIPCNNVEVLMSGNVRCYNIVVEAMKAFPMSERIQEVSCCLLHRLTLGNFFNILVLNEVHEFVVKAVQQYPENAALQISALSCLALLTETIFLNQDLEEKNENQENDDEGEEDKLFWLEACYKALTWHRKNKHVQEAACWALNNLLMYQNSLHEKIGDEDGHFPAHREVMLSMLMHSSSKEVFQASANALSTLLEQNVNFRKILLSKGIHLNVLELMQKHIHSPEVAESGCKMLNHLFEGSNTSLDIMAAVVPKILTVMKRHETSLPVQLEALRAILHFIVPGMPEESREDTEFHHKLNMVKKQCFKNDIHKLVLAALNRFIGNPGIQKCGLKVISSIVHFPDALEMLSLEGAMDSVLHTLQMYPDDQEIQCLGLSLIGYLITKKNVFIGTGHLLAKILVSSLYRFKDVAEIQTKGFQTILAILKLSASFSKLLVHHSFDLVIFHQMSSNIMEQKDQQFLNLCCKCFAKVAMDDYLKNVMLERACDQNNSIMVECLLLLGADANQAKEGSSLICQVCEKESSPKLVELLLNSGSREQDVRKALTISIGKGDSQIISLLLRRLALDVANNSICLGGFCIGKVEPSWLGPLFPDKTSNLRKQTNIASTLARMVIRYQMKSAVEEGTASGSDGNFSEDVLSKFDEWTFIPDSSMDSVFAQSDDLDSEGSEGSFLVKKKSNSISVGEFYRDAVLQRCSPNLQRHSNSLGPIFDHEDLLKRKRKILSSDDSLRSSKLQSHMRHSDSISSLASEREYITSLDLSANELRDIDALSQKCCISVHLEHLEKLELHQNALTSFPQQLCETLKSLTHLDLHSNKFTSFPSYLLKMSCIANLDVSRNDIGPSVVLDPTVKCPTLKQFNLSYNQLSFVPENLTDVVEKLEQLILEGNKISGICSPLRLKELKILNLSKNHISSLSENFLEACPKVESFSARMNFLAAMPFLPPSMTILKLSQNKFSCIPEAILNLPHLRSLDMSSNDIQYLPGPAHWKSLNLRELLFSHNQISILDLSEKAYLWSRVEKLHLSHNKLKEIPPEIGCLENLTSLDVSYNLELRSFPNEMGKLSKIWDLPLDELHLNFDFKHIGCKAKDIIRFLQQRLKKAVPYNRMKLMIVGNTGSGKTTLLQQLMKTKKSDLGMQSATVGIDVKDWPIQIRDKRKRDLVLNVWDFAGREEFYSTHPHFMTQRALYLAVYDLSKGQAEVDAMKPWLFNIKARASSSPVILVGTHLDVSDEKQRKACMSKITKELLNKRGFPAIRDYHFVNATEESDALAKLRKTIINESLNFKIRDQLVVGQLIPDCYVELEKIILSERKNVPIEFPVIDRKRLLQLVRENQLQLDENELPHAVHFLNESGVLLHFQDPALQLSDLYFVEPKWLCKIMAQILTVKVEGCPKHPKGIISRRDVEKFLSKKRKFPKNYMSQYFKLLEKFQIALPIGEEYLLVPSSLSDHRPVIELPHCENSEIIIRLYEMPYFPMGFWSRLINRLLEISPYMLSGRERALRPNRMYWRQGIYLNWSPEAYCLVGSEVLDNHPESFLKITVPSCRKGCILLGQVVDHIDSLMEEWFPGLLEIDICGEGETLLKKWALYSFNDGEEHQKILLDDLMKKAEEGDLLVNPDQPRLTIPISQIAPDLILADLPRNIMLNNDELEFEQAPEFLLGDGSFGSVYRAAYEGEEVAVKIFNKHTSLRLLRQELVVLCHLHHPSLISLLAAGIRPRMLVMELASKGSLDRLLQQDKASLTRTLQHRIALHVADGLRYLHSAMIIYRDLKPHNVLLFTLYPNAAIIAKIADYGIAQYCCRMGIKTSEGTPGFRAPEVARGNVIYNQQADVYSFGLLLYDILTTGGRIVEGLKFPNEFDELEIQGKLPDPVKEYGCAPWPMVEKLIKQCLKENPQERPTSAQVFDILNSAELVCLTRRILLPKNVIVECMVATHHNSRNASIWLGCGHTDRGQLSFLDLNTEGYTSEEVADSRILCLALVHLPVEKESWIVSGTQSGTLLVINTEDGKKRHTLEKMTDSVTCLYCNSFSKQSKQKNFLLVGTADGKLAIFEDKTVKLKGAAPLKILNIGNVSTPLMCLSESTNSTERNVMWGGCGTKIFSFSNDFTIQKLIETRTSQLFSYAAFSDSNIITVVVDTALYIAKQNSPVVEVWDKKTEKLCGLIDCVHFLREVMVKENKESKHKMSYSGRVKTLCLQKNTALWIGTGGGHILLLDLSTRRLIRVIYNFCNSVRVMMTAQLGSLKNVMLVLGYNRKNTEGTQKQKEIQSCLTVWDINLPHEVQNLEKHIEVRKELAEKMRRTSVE
Protocol: (§2) The inhibition rates of tested compounds on JAK1, JAK2, JAK3, TYK2, CDK7, CDK9, EGFR (T790M) and LRRK2 kinases were measured. The test concentrations of the compounds were 10 nM and 100 nM, and the detection was performed by replicate wells. Alternatively, compounds were 3-fold serial diluted from 10 µM for 10 concentrations in replicate wells.

[4] = molecular target: T1, JAK1; experiment: JAKs cell activity test: detection of pSTAT6 in THP1 cells induced by JAK1_IL-4; assay type: cell-based; conditions: pSTAT6, IL-4-induced THP1 cells
Protocol: Detection of pSTAT6 in THP1 cells induced by JAK1_IL-4
(§3) THP1 cells were collected by centrifugation, resuspended with 1×HBSS, counted and diluted to a certain cell density. They were inoculated in a 384-well plate and cultured in a saturated humidity incubator with 37 °C and 5% CO2. The compound (DMSO final volume of 0.3%) was added to THP1 cells (10 doses in duplicates) and cultured in a saturated humidity incubator with 37 °C and 5% CO2. hIL-4 was added to stimulate cells and cultured in a saturated humidity incubator with 37 °C and 5% CO2. The lysis solution was added and incubated at room temperature. According to the instructions of AlphaLISA SureFire Ultra p-STAT6 detection kit, the lysis solution was transferred to pSTAT6 detection system, and the ALPHA signal was read by PE Envision microplate reader. The inhibition rate Inh%=((DMSO-sample)/(DMSO-background))×100 was calculated. IC50 was obtained by fitting with GraphPad Prism non-linear regression equation, and y=Bottom+(Top-Bottom)/(1+10^((LogIC50-x)×hillslope)), where x was the concentration of the compound and y was the inhibition rate.

[5] = molecular target: T2, wild-type LRRK2 (Homo sapiens, UniProt Q5S007); experiment: detection of phosphorylated S935 in HEK293T overexpressing wild-type LRRK2; assay type: cell-based; conditions: pS935, HEK293T overexpressing wild-type LRRK2, 1.5 hours
T2 construct: pCMV-flag-WT LRRK2 (full-length); expressed in transfected cells; host or cells: HEK293T
T2 sequence (Q5S007 whole entry): as above
Protocol: (§4) Detection of phosphorylated S935 in HEK293T Overexpressing full-length LRRK2 (G2019S) or wild-type LRRK2
(§5) HEK293T cells was inoculated into a 6-well plate and cultured overnight. The next day, they were transiently transfected with plasmid pcDNA5-FRT/TO-FLAG LRRK2 (G2019S, full-length) or pCMV-flag-WT LRRK2 (full-length) by using Superfect transfection reagent and cultured at 37°C and 5% CO2 for 20-24 hours. The next day, cells were collected, resuspended at a density of 0.48×10^6 cells/ml, and inoculated into a 384-well plate at 50 microliters/well. Compound or DMSO solutions (volume ratio of 0.5%) were added by Tecan, and cultured at 37°C and 5% CO2 for 1.5 hours. After 1.5 hours, the supernatant was discarded, 50 microliters of 8% PFA were added in each well to fix the cells, and the cells were incubated at room temperature for 1 hour. The plate was washed with EL406 plate washer for three times, with 115 microliters of PBST per well, and the culture plate was patted to dryness. The cells were blocked with 50 microliters/well of Licor Odyssey blocking solution (0.1% Tween 20) at room temperature for 1.5 hours. The blocking solution was discarded and the culture plate was patted to dryness. 20 microliters of primary antibody (1:1000(pS935), diluted with Licor Odyssey buffer (0.1% Tween20)) was added into each well, and incubated at 4 °C overnight. The next day, the first antibody was discarded and washing was performed with PBST for five times. 20 microliters of secondary antibody (diluted with Licor Odyssey buffer (0.1% Tween20) at 1:500 and stained with DNA at 1:2000) were added into each well, and incubated at room temperature for 1 hour. The second antibody was discarded, and washing was performed for three times with PBST. The fluorescence intensity was measured by LICOR Odyssey imager Scanner, and the data was analyzed.

[6] = molecular target: T3, JAK3 (Mus musculus, UniProt Q62137); experiment: JAKs cell activity test: JAK3_pSTAT5 in IL-2-induced CTLL-2 cells; assay type: cell-based; conditions: pSTAT5, IL-2-induced CTLL-2 cells
T3 construct: endogenous in cells; host or cells: CTLL-2
T3 sequence (Q62137 1-1100): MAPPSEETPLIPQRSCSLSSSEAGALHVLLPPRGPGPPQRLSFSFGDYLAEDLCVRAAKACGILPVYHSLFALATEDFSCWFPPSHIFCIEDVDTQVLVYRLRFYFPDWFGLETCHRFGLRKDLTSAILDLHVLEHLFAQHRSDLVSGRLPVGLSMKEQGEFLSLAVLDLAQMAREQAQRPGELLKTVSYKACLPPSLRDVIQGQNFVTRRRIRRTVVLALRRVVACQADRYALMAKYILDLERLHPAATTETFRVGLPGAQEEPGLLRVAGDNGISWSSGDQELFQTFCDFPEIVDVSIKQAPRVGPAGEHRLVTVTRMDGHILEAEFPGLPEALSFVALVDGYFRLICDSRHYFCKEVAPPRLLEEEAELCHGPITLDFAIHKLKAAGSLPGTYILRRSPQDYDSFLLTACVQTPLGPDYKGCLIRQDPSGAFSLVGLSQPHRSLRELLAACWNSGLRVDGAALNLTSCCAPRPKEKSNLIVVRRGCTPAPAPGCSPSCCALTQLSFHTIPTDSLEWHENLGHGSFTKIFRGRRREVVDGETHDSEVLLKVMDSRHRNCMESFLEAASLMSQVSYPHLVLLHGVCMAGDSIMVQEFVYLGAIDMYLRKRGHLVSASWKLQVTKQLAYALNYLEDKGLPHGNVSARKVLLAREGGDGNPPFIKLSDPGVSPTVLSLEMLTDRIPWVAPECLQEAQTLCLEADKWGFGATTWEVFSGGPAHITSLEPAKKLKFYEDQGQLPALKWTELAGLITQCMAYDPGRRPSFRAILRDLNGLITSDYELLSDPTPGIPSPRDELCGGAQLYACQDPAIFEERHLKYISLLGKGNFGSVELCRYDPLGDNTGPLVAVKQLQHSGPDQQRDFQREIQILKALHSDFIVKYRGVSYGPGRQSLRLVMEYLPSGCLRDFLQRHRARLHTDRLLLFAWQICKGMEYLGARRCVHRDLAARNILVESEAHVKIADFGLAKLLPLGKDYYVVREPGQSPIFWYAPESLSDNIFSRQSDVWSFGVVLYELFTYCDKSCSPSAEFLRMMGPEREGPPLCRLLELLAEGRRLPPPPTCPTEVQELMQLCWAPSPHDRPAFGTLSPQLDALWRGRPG
Protocol: as §3
JAK2_pSTAT5 was tesed in IL-3-induced BAF3 cells according to the above steps, and JAK3_pSTAT5 was tested in IL-2-induced CTLL-2 cells (without serum stimulation) according to the above steps.

[7] = molecular target: T4, JAK3 (Homo sapiens, UniProt P52333); experiment: experiment of inhibiting kinase activity (Caliper mobility shift assay), JAK3; assay type: biochemical; conditions: at 10 nM; read-out: inhibition rate JAK3
T4 sequence (P52333 1-1124): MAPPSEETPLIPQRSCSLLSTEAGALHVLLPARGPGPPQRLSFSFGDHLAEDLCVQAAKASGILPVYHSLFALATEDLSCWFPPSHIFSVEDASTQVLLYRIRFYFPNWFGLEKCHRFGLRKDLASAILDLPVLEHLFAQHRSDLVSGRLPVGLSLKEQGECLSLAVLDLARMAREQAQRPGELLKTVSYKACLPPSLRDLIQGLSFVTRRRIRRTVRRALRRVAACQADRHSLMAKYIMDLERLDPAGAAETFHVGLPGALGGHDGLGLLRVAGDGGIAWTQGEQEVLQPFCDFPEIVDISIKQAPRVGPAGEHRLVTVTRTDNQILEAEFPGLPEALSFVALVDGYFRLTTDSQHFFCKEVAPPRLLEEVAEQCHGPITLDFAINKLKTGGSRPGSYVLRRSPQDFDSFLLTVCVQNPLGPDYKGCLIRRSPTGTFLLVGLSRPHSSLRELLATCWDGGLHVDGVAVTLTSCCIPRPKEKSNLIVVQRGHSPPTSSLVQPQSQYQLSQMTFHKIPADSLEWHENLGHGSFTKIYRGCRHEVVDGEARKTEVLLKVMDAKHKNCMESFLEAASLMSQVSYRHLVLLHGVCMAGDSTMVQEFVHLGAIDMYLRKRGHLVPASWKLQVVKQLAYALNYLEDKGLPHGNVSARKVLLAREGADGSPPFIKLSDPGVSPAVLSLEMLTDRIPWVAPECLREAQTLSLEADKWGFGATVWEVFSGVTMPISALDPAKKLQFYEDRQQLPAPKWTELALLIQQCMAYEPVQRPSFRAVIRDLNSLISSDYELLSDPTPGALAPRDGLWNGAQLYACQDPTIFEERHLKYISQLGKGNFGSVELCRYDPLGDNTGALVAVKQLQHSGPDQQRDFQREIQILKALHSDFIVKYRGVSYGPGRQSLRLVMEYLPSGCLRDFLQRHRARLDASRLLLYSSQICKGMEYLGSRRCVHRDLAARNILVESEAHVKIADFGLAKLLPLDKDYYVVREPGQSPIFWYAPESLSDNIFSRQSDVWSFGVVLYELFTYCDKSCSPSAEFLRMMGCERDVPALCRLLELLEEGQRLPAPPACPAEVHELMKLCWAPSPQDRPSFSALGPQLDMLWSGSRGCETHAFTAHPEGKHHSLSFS
How it was run: as §1

[8] = molecular target: TYK2 (Homo sapiens, UniProt P29597); experiment: experiment of inhibiting kinase activity, TYK2; assay type: biochemical; conditions: at 10 nM; read-out: inhibition rate TYK2
Protocol: as §2

[9] = molecular target: T5, LRRK2 (G2019S) (Homo sapiens, UniProt Q5S007, G2019S); experiment: detection of phosphorylated S935 in HEK293T overexpressing full-length LRRK2 (G2019S); assay type: cell-based; conditions: pS935, HEK293T overexpressing LRRK2 (G2019S), 1.5 hours
T5 construct: pcDNA5-FRT/TO-FLAG LRRK2 (G2019S, full-length); expressed in transfected cells; host or cells: HEK293T
T5 sequence (Q5S007 whole entry G2019S): as the sequence (Q5S007 whole entry) above, with G2019S counted along it
Protocol: as §4, §5

T1 sequence (P23458 whole entry): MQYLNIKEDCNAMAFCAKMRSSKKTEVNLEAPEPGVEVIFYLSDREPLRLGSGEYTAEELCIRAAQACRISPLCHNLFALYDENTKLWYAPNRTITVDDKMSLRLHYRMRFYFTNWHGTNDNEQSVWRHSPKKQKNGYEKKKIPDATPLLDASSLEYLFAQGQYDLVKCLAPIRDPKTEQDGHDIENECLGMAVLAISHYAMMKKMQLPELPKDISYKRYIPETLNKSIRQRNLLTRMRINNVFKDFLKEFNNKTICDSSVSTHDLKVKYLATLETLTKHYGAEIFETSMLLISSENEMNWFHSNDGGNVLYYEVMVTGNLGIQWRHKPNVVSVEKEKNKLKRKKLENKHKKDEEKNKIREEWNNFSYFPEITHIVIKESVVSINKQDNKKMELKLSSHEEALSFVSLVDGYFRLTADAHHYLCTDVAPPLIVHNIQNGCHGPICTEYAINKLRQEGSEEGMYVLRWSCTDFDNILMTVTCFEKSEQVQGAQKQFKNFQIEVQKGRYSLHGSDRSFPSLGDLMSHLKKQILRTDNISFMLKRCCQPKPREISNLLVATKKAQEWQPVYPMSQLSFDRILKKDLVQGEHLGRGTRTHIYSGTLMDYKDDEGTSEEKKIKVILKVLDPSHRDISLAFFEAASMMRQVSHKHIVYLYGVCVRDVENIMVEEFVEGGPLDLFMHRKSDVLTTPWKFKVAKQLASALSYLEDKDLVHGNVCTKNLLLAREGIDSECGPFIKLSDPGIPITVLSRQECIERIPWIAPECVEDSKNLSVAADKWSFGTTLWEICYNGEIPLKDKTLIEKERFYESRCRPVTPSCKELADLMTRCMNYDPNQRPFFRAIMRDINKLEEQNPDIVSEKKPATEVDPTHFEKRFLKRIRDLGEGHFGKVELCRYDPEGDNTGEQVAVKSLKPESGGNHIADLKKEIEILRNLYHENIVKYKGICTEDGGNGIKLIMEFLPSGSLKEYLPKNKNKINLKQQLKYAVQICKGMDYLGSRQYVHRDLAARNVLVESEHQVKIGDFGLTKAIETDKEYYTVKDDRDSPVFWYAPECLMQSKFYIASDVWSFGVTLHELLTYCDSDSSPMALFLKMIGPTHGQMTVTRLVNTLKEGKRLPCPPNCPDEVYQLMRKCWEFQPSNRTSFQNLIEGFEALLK

Compound	inhibition at 0.1 µM ([1]; read-out: inhibition rate JAK1)	IC50 [1]	inhibition at 0.01 µM [2]	inhibition at 0.1 µM [2]	IC50 [2]	inhibition at 0.1 µM [3]	IC50 [3]	EC50 [4]	EC50 [5]	inhibition at 0.01 µM ([1]; at 10 nM, read-out: inhibition rate JAK1)	EC50 [6]	inhibition at 0.01 µM [7]	inhibition at 0.01 µM [8]	inhibition at 0.01 µM [3]	EC50 [9]
CN1CCOc2ccc(Nc3nc(-c4ccc(C(=O)NCC#N)cc4)c4cc[nH]c4n3)cc2OCC1 [Example 2, N-(cyanomethyl)-4-(2-((4-methyl-3,4,5,6-tetrahydro-2H-benzo[b][1,4,7]dioxazolin-9-yl)amino)-7H-pyrrolo[2,3-d]pyrimidin-4-yl)benzamide]	> 80%	< 50 nM	40 to 79%	> 80%	< 50 nM	> 80%	< 50 nM	< 50 nM	< 500 nM						
CN1CCOc2ccc(Nc3nc(-c4cnn(C(CC#N)C5CCCC5)c4)c4cc[nH]c4n3)cc2OCC1 (centres unmarked) [Example 27, 3-cyclopentyl-3-(4-(2-((4-methyl-3,4,5,6-tetrahydro-2H-benzo[b][1,4,7]dioxazolin-9-yl)amino)-7H-pyrrolo[2,3-d]pyrimidin-4-yl)-1H-pyrazol-1-yl)propanenitrile]	> 80%	< 50 nM	> 80%	> 80%	< 50 nM	> 80%	< 50 nM	< 50 nM		40 to 79%	< 50 nM				
C=CC(=O)Nc1cccc(Nc2nc(Nc3ccc4c(c3)OCCN(C)CCO4)ncc2Cl)c1 [Example 55, N-(3-((5-chloro-2-((4-methyl-3,4,5,6-tetrahydro-2H-benzo[b][1,4,7]dioxazolin-9-yl)amino)pyrimidin-4-yl)amino)phenyl)acrylamide]			25 to 39%								50 to 500 nM	> 80%			
CN1CCOc2ccc(Nc3nc(Nc4ccccc4P(C)(C)=O)c4cc[nH]c4n3)cc2OCC1 [Example 73, dimethyl(2-((2-((4-methyl-3,4,5,6-tetrahydro-2H-benzo[b][1,4,7]dioxazolin-9-yl)amino)-7H-pyrrolo[2,3-d]pyrimidin-4-yl)amino)phenyl)phosphine oxide]			> 80%				< 50 nM		< 500 nM			> 80%	40 to 79%	> 80%	< 500 nM
CC(C)S(=O)(=O)c1ccccc1Nc1nc(Nc2ccc3c(c2)OCCN(C)CCO3)ncc1C(F)(F)F [Example 82, N^4-(2-(isopropylsulfonyl)phenyl)-N^2-(4-methyl-3,4,5,6-tetrahydro-2H-benzo[b][1,4, 7]dioxazolin-9-yl)-5-(trifluoromethyl)pyrimidin-2,4-diamine]			40 to 79%				< 50 nM		< 500 nM				40 to 79%	> 80%	< 500 nM
CN1CCOc2ccc(Nc3nc(NCCS(C)(=O)=O)c4cc[nH]c4n3)cc2OCC1 [Example 84, N^2-(4-methyl-3,4,5,6-tetrahydro-2H-benzo[b][1,4,7]dioxazolin-9-yl)-N^4-(2-(methylsulfonyl)ethyl)-7H-pyrrolo[2,3-d]pyrimidin-2,4-diamine]							< 50 nM		1000 to 5000 nM					40 to 79%	
